From ChEMBL document CHEMBL1201862, “PubChem BioAssay data set” (2004)
“And” between values parts separate entries of the source, which are not always exact repeats. Identical values can stand only once.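 Interpolation was linear, between the two tested concentrations surrounding the appropriate level; five concentrations were tested over 48 hours in 96-well plates. The concentration for 50% growth inhibition is given as GI50.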 The source made the active and inactive calls. Cut-off read from the data, not from the text of the source: active = GI50 up to about 1.1 µM and inactive = higher.

Columns and labels:
Test in all cases: DTP human tumour cell line panel, 48 h
A498 = system: A498
CAKI-1 = system: CAKI-1
COLO 205 = system: COLO 205
HCT-116 = system: HCT-116
IGROV-1 = system: IGROV-1
K562 = system: K562
KM12 = system: KM12
LOX IMVI = system: LOX IMVI
NCI-H23 = system: NCI-H23
NCI-H522 = system: NCI-H522
SF-268 = system: SF-268
SF-295 = system: SF-295
SK-MEL-28 = system: SK-MEL-28
SK-OV-3 = system: SK-OV-3
SN12C = system: SN12C
SR = system: SR

Measured: GI50

CC(=O)CC(=O)N(CCN(C(=O)CC(C)=O)c1ccccc1)c1ccccc1
inactive: A498 > 100 µM | CAKI-1 > 100 µM | COLO 205 > 100 µM | HCT-116 > 100 µM | IGROV-1 > 100 µM | K562 > 100 µM | KM12 > 100 µM | LOX IMVI > 100 µM | NCI-H23 > 100 µM | NCI-H522 84.7 µM | SF-268 > 100 µM | SF-295 > 100 µM | SK-MEL-28 > 100 µM | SK-OV-3 > 100 µM | SN12C > 100 µM

CCOc1ccccc1NC(=O)C1=C(C)NC(C)=C(C(=O)Nc2ccccc2OCC)C1c1cccc([N+](=O)[O-])c1
inactive: A498 51.2 µM | CAKI-1 5.9 µM | COLO 205 > 100 µM | IGROV-1 > 100 µM | K562 28.2 µM | KM12 49.9 µM | LOX IMVI 66.8 µM | NCI-H23 > 100 µM | NCI-H522 22.4 µM | SF-268 > 100 µM | SF-295 > 100 µM | SK-MEL-28 > 100 µM | SK-OV-3 > 100 µM | SN12C > 100 µM

COc1ccc(C2ON(c3cccc(C)n3)CC=C2C)cc1 (stereo not given)
inactive: CAKI-1 74.1 µM | COLO 205 41.4 µM | IGROV-1 60.8 µM | K562 38.8 µM | KM12 36.3 µM | LOX IMVI 41.5 µM | NCI-H23 27.6 µM | NCI-H522 19.2 µM | SF-268 60.1 µM | SF-295 59.8 µM | SK-MEL-28 23.7 µM | SK-OV-3 97.9 µM | SN12C 70.6 µM | SR 30.1 µM

CC(C)N(C(=O)C12C3C4C1C1C2C3C41I)C(C)C (stereo not given)
inactive: A498 > 100 µM | CAKI-1 > 100 µM | COLO 205 > 100 µM | HCT-116 > 100 µM | IGROV-1 > 100 µM | K562 > 100 µM | KM12 > 100 µM | NCI-H23 > 100 µM | NCI-H522 > 100 µM | SF-268 > 100 µM | SF-295 > 100 µM | SK-MEL-28 > 100 µM | SK-OV-3 > 100 µM | SN12C > 100 µM | SR > 100 µM

COc1cc2c(cc1OC)C1c3ccccc3C(C#N)(C2)N(C(=O)c2ccccc2)C1O (stereo not given)
inactive: COLO 205 22.8 µM | HCT-116 > 100 µM | IGROV-1 47.5 µM | K562 36.5 µM | KM12 46.5 µM | LOX IMVI > 100 µM | NCI-H23 84.5 µM | NCI-H522 21.3 µM | SF-268 > 100 µM | SF-295 > 100 µM | SK-MEL-28 > 100 µM | SK-OV-3 77.3 µM | SN12C > 100 µM | SR 79.8 µM

CC1(O)CC2C(CC1SC1CC3C(CC1(C)O)C3(C)C)C2(C)C (stereo not given)
inactive: COLO 205 35.5 µM | HCT-116 44.8 µM | IGROV-1 45 µM | K562 30.5 µM | KM12 46.8 µM | NCI-H23 41.7 µM | SF-268 > 100 µM | SF-295 46 µM | SK-MEL-28 > 100 µM | SK-OV-3 54.7 µM | SN12C 36.1 µM

CC1=C(CC2C(=O)N(c3ccccc3)S(=O)(=O)NC2C)C(=O)N(c2ccccc2)S(=O)(=O)N1C (stereo not given)
inactive: CAKI-1 > 100 µM | COLO 205 > 100 µM | HCT-116 > 100 µM | IGROV-1 > 100 µM | K562 > 100 µM | KM12 > 100 µM | LOX IMVI > 100 µM | NCI-H23 > 100 µM | NCI-H522 > 100 µM | SF-268 > 100 µM | SF-295 > 100 µM | SK-MEL-28 > 100 µM | SK-OV-3 > 100 µM | SN12C > 100 µM | SR > 100 µM

COc1c(O)c2c3c(c(C)cc(O)c3c1O)C(=O)C(O)(C(C)(C)C(C)=O)C2=O (stereo not given)
inactive: CAKI-1 > 100 µM | COLO 205 > 100 µM | HCT-116 > 100 µM | IGROV-1 > 100 µM | KM12 > 100 µM | NCI-H23 > 100 µM | SF-268 > 100 µM | SK-MEL-28 > 100 µM | SK-OV-3 > 100 µM | SN12C > 100 µM and 82.4 µM

Clc1ccc(OCc2nnc3n2N=C(c2ccccc2)CS3)cc1
inactive: CAKI-1 24.9 µM | COLO 205 15.3 µM | HCT-116 11.2 µM | IGROV-1 4.47 µM | K562 12.7 µM | KM12 15.9 µM | LOX IMVI 17 µM | NCI-H23 12.2 µM | NCI-H522 17.4 µM | SF-268 14.3 µM | SF-295 19.3 µM | SK-MEL-28 21.8 µM | SK-OV-3 20.7 µM | SN12C 11.7 µM | SR 6.5 µM

CCN(c1n[n+]2c(-c3ccccc3)csc2s1)c1n[n+]2c(-c3ccccc3)csc2s1
inactive: COLO 205 26.4 µM | HCT-116 19.3 µM | IGROV-1 > 100 µM | K562 17.5 µM | KM12 30.8 µM | LOX IMVI 57.9 µM | NCI-H23 44.6 µM | NCI-H522 35.6 µM | SF-268 > 100 µM | SF-295 > 100 µM | SK-MEL-28 79.1 µM | SK-OV-3 > 100 µM | SN12C > 100 µM | SR 20.5 µM

CC1(Cl)CC(C)(/C=C/Cl)C(Cl)CC1Cl (stereo not given)
inactive: A498 19.2 µM | CAKI-1 16.1 µM | HCT-116 10.1 µM | IGROV-1 12.9 µM | K562 9.79 µM | KM12 16.6 µM | NCI-H23 19.8 µM | NCI-H522 16.7 µM | SF-268 15.9 µM | SF-295 15.2 µM | SK-MEL-28 15 µM | SK-OV-3 38.4 µM | SN12C 17.3 µM | SR 18.2 µM

CC1=CCCC2C(C=O)(C1)CC(C)C2(CO)CC/C(=C/CO)CO (stereo not given)
inactive: A498 > 100 µM | CAKI-1 57.3 µM | COLO 205 > 100 µM | HCT-116 69.5 µM | IGROV-1 > 100 µM | K562 89.5 µM | KM12 > 100 µM | LOX IMVI > 100 µM | NCI-H23 90.6 µM | NCI-H522 38.4 µM | SF-295 > 100 µM | SK-MEL-28 > 100 µM | SK-OV-3 > 100 µM | SN12C > 100 µM

C\C=C/C=C/C=C/C(=O)O
inactive: A498 > 100 µM | CAKI-1 > 100 µM | COLO 205 > 100 µM | HCT-116 > 100 µM | IGROV-1 > 100 µM | K562 > 100 µM | KM12 > 100 µM | LOX IMVI > 100 µM | NCI-H23 > 100 µM | NCI-H522 > 100 µM | SF-268 > 100 µM | SF-295 > 100 µM | SK-MEL-28 > 100 µM | SK-OV-3 > 100 µM | SN12C > 100 µM

COC(=O)C1=C(O)c2cc3c(cc2[C@H](c2cc(OC)c(OC)c(OC)c2)C1)OCO3
inactive: A498 22.5 µM | CAKI-1 34.8 µM | COLO 205 19.3 µM | HCT-116 55.3 µM | IGROV-1 24.4 µM | K562 22.5 µM | KM12 23.3 µM | LOX IMVI 30.5 µM | NCI-H23 41.7 µM | SF-268 51.5 µM | SF-295 37.5 µM | SK-MEL-28 39.2 µM | SK-OV-3 > 100 µM | SN12C 54.1 µM | SR 30.8 µM
